Measured values published in US7862838B1, “Composition and regimen for the treatment of herpes simplex and herpes zoster primarily by eliminating their pathogenetic conditions and taking into account both pathogenesis and etiology” (priority 2009, dated 2011).

Columns and labels:
herpes zoster = assay: Treatment of herpes zoster in patients, case report and general statement; format: in vivo; conditions: case 5, herpes zoster around right eye
Text: The average total period of treatment with the present invention is from about 2-4 days for herpes simplex and from about 3-7 days for herpes zoster. After the acute stage, crusts of the lesion form and fall off gradually, and then a red spot or spots remain for some more days. […] […] For quicker relief, the patient preferred to take the formula of the present invention along with acyclovir.

herpes simplex = assay: Treatment and prevention of herpes simplex (lips, mouth) in patients, case reports and general statements; format: in vivo; conditions: large dosage (200-500 mg), applicant's experience
Description: The treatment regimen of the present invention comprises: Initially, administering to the patient 2 capsules (or tablets, the same hereinafter) of said formula orally every 2-4 hours. The dosage may be higher in severe cases, and may be adjusted by the prescribing health care provider. When symptoms are alleviated (see description below), usually after 1-2 days, administer 1 capsule of said formula every 4 hours until symptoms disappear. The average total period of treatment with the present invention is from about 2-4 days for herpes simplex and from about 3-7 days for herpes zoster. After the acute stage, crusts of the lesion form and fall off gradually, and then a red spot or spots remain for some more days. The formula of the present invention can be used for therapeutic prevention of herpes simplex: Whenever the patient feels a stinging and burning sensation on the potential site, or feels roughness on the tip of the tongue, they can ingest 1-2 capsules of the formula, and repeat every 2-4 hours if necessary. […] After several such preventive measures, recurrence of herpes simplex will be less and less likely, or latent for a sustained period. […] Patient stated that they had had recurrent maceration in the angles of the mouth since childhood. […]

CC(C)Cc1ccc(C(C)C(=O)O)cc1 (stereo not drawn) [Ibuprofen]
pain relief before treatment with the formula (herpes zoster): effective only for a short time

Nc1nc2c(ncn2COCCO)c(=O)[nH]1 [acyclovir]
pain relief before treatment with the formula (herpes zoster): got some relief

O=C1O[C@H]([C@@H](O)CO)C(O)=C1O [vitamin C]
effect on the course of herpes simplex (herpes simplex): made herpes simplex worse
